{
  "source": "ChEMBL document CHEMBL5370551",
  "about": "“Inside PD-1/PD-L1,2 with their inhibitors” (Eur J Med Chem, 2023)",
  "key": {"[1]": {"biological_target": "T1, Programmed cell death protein 1/Programmed cell death 1 ligand 1 (Homo sapiens, UniProt Q15116+Q9NZQ7)", "T1 sequence (Q15116 whole entry)": "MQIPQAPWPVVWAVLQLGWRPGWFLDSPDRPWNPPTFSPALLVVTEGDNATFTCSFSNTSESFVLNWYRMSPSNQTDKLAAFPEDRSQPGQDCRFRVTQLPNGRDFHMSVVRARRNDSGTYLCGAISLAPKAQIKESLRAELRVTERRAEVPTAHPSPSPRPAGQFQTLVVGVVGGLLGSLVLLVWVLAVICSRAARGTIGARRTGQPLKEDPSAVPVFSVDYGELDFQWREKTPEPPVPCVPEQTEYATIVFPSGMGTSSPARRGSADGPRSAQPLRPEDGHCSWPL", "T1 sequence (Q9NZQ7 whole entry)": "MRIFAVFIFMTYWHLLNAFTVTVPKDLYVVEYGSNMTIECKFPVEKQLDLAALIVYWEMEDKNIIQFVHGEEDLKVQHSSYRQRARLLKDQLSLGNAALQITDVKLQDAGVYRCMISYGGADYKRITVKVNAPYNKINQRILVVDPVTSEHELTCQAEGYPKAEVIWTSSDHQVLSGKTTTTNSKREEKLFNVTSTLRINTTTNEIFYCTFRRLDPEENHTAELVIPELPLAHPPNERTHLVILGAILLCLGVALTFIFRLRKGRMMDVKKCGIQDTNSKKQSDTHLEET", "test": "Inhibition of PD-I/PD-L1 interaction (unknown origin)", "type": "protein-complex assay"}, "[2]": {"biological_target": "T1, Programmed cell death protein 1/Programmed cell death 1 ligand 1", "test": "Inhibition of biotinylated human PD-I/human PD-L1 interaction at 100 uM incubated for 2 hrs by ELISA relative to control", "type": "protein-complex assay"}, "[3]": {"biological_target": "T1, Programmed cell death protein 1/Programmed cell death 1 ligand 1", "test": "Inhibition of PD-I/PD-L1 interaction (unknown origin) by ELISA", "type": "protein-complex assay"}, "[4]": {"biological_target": "T1, Programmed cell death protein 1/Programmed cell death 1 ligand 1", "test": "Inhibition of PD-I/PD-L1 interaction (unknown origin) by HTRF assay", "type": "protein-complex assay"}, "[5]": {"test": "Cytotoxicity against human MDA-MB-231 cells assessed as reduction in cell growth by MTT assay", "type": "toxicity, cell-based"}, "[6]": {"biological_target": "Programmed cell death 1 ligand 1 (Homo sapiens) (UniProt Q9NZQ7)", "sequence (Q9NZQ7 whole entry, the tested form may be a part)": "as the sequence (Q9NZQ7 whole entry) above", "test": "Inhibition of human recombinant extracellular domain PD-L1 in human DU-145 cells incubated for 1 hr relative to control", "type": "cell-based", "settings": "concentration not given here"}, "[7]": {"test_system": "B16-F10", "test": "Antitumor activity against mouse B16-F10 expressing human PD-L1 allografted in C57BL/6 mouse assessed as inhibition of tumor growth at 10 mg/kg, ip administered every 2 days for 24 days relative to control", "type": "functional", "settings": "B16-F10, 48 h, time 2 day"}, "[8]": {"test_system": "B16-F10", "test": "Antitumor activity against mouse B16-F10 expressing human PD-L1 allografted in C57BL/6 mouse assessed as inhibition of tumor growth at 10 mg/kg, ip administered every 3 days for 24 days relative to control", "type": "functional", "settings": "B16-F10, 72 h, time 3 day"}, "[9]": {"biological_target": "T2, PD1-PDL2 (Homo sapiens, UniProt Q15116+Q9BQ51)", "T2 sequence (Q15116 whole entry)": "as the sequence (Q15116 whole entry) above", "T2 sequence (Q9BQ51 whole entry)": "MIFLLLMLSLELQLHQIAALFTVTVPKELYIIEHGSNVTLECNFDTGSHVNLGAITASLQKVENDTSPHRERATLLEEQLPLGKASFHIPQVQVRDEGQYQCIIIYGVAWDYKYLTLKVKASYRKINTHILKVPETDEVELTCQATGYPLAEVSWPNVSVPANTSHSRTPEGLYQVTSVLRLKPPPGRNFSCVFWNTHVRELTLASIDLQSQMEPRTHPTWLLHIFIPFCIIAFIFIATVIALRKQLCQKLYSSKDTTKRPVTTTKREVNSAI", "test": "Inhibition of PD-I/PD-L2 interaction (unknown origin) expressed in HEK293 cells", "type": "cell-based"}, "[10]": {"biological_target": "T2, PD1-PDL2", "test": "Inhibition of PD-I/PD-L2 interaction (unknown origin) expressed in human […] cells", "type": "cell-based"}, "[11]": {"biological_target": "T1, Programmed cell death protein 1/Programmed cell death 1 ligand 1", "test": "Inhibition of biotinylated human PD-I /His-tagged PD-L1 (unknown origin) interaction incubated for 90 mins in dark condition by AlphaLISA assay", "type": "protein-complex assay"}, "[12]": {"biological_target": "T1, Programmed cell death protein 1/Programmed cell death 1 ligand 1", "test": "Inhibition of Fc-fused recombinant human PD-I/His-tagged recombinant human PD-L1 interaction incubated overnight by HTRF assay", "type": "protein-complex assay"}, "[13]": {"test": "Oral bioavailability in mouse", "type": "ADME, organism-based", "settings": "in vivo"}, "[14]": {"biological_target": "Programmed cell death 1 ligand 1 (Homo sapiens) (UniProt Q9NZQ7)", "test": "Induction of PD-L1 degradation in human NCI-H292 at 20 uM relative to control", "type": "cell-based"}, "[15]": {"test_system": "NCI-H292", "test": "Cytotoxicity against human NCI-H292 cells assessed as inhibition of cell growth", "type": "functional, cell-based"}, "[16]": {"biological_target": "T1, Programmed cell death protein 1/Programmed cell death 1 ligand 1", "test": "Inhibition of PD-1/PD-L1 interaction (unknown origin) at 25 uM by AlphaLISA assay relative to control", "type": "protein-complex assay"}, "[17]": {"biological_target": "T1, Programmed cell death protein 1/Programmed cell death 1 ligand 1", "test": "Inhibition of PD-1/PD-L1 interaction (unknown origin) by HTRF assay", "type": "protein-complex assay"}},
  "note": "Residues, ends and D or L forms follow the SMILES beside them.",
  "data": [
    {"molecule": "Cc1c(COc2ccc(CN[C@H](CO)C(=O)O)c(OCc3cccc(C#N)c3)c2)cccc1-c1ccc2c(c1)OCCO2", "values": [
      {"measurement": "IC50", "setting": "[1]", "value": 2.25, "unit": "nM"}
    ]},
    {"molecule": "O=C(c1cc2ccccc2[nH]1)N1CCN(Cc2csc(-c3ccccc3)n2)CC1", "values": [
      {"measurement": "inhibition", "setting": "[2]", "value": 21, "unit": "%"}
    ]},
    {"molecule": "CSCC[C@H](NC(=O)[C@H](CC(=O)O)NC(=O)[C@H](Cc1ccccc1)NC(=O)[C@H](CCCNC(=N)N)NC(=O)[C@H](Cc1ccc(O)cc1)NC(=O)[C@H](CC(=O)O)NC(=O)[C@H](CCCNC(=N)N)NC(=O)[C@H](Cc1c[nH]c2ccccc12)NC(=O)[C@@H](NC(=O)[C@H](Cc1c[nH]c2ccccc12)NC(=O)[C@@H](N)CCCNC(=N)N)C(C)C)C(=O)NCC(=O)N[C@@H](Cc1ccccc1)C(=O)N[C@@H](CC(=O)O)C(=O)N[C@@H](Cc1c[nH]c2ccccc12)C(=O)N[C@H](C(=O)N[C@@H](Cc1c[nH]c2ccccc12)C(=O)N[C@@H](CCC(=O)O)C(=O)O)C(C)C", "note": "(H-RWVWRDYRFDMGFDWVWE-OH)", "values": [
      {"measurement": "IC50", "setting": "[3]", "value": 600, "unit": "nM"}
    ]},
    {"molecule": "COc1nc(-c2cccc(-c3ccccc3F)c2C)ccc1CNCCC(N)=O", "values": [
      {"measurement": "IC50", "setting": "[4]", "value": 0.9, "unit": "nM"},
      {"measurement": "EC50", "setting": "[5]", "value": 11100, "unit": "nM"}
    ]},
    {"molecule": "CC(C)C[C@H](NC(=O)[C@H](CC(N)=O)NC(=O)[C@H](Cc1c[nH]c2ccccc12)NC(=O)[C@@H](NC(=O)[C@H](Cc1ccc(O)cc1)NC(=O)[C@H](Cc1ccc(O)cc1)NC(=O)[C@H](CO)NC(=O)[C@H](CCCNC(=N)N)NC(=O)[C@H](Cc1c[nH]cn1)NC(=O)[C@@H](N)Cc1c[nH]c2ccccc12)[C@@H](C)O)C(=O)N[C@@H](CC(N)=O)C(=O)N[C@H](C(=O)O)[C@@H](C)O", "note": "(H-WHRSYYTWNLNT-OH)", "values": [
      {"measurement": "inhibition", "setting": "[6]", "value": 80, "unit": "%"}
    ]},
    {"molecule": "NC(=O)c1ccccc1NC(=O)c1ccc(-c2ccccc2)cc1", "values": [
      {"measurement": "inhibition in vivo at 10 mg/kg", "setting": "[7]", "value": 62, "unit": "%"},
      {"measurement": "inhibition in vivo at 10 mg/kg", "setting": "[8]", "value": 66, "unit": "%"}
    ]},
    {"molecule": "CC[C@H](C)[C@H](NC(=O)[C@H](CCC(N)=O)NC(=O)[C@H](C)NC(=O)[C@H](CCCCN)NC(=O)[C@@H]1CCCN1C(=O)[C@H](C)NC(=O)[C@H](CC(C)C)NC(=O)[C@H](CCC(N)=O)NC(=O)[C@@H](NC(=O)[C@@H](NC(=O)[C@H](CCCNC(=N)N)NC(=O)[C@H](Cc1ccccc1)NC(=O)[C@H](CCCCNC(=O)[C@H](Cc1ccccc1)NC(=O)[C@H](CO)NC(=O)[C@H](CCC(=O)O)NC(=O)[C@H](CO)NC(=O)[C@@H](NC(=O)[C@H](CC(N)=O)NC(=O)[C@@H](N)CO)[C@@H](C)O)NC(=O)[C@H](Cc1ccccc1)NC(=O)[C@H](CO)NC(=O)[C@H](CCC(=O)O)NC(=O)[C@H](CO)NC(=O)[C@@H](NC(=O)[C@H](CC(N)=O)NC(=O)[C@@H](N)CO)[C@@H](C)O)C(C)C)[C@@H](C)O)C(=O)N[C@@H](CCCCN)C(=O)N[C@@H](CCC(=O)O)C(N)=O", "values": [
      {"measurement": "EC50", "setting": "[9]", "value": 0.72, "unit": "nM"},
      {"measurement": "EC50", "setting": "[10]", "value": 0.41, "unit": "nM"}
    ]},
    {"molecule": "CO[C@H]1/C=C/O[C@@]2(C)Oc3c(C)c(O)c4c(c3C2=O)C2=NC3(CCN(CC(C)C)CC3)NC2=C(NC(=O)/C(C)=C\\C=C\\[C@H](C)[C@H](O)[C@@H](C)[C@@H](O)[C@@H](C)[C@H](OC(C)=O)[C@@H]1C)C4=O", "note": "[RIFABUTIN]", "values": [
      {"measurement": "IC50", "setting": "[11]", "value": 25000, "unit": "nM"}
    ]},
    {"molecule": "Cc1c(NC(=O)c2ccc(CNCCO)cn2)cccc1-c1cccc(NC(=O)c2ccc(CNCCO)cn2)c1C", "values": [
      {"measurement": "IC50", "setting": "[12]", "value": "[…]"}
    ]},
    {"molecule": "CC1=C(C(=O)OCc2ccccc2)C(CC(C)(C)C)C(C(=O)OCc2ccccc2)=C(C)N1", "values": [
      {"measurement": "bioavailability", "setting": "[13]", "value": 25, "unit": "%"},
      {"measurement": "Activity", "setting": "[14]", "value": 67, "unit": "%"},
      {"measurement": "IC50", "setting": "[15]", "value": 62000, "unit": "nM"}
    ]},
    {"molecule": "Cc1cc(/C=C/c2ccc3cc(N(C)C)ccc3[n+]2C)c(C)n1-c1ccccc1", "values": [
      {"measurement": "inhibition", "setting": "[16]", "value": 44.5, "unit": "%"},
      {"measurement": "IC50", "setting": "[17]", "value": 30000, "unit": "nM"}
    ]}
  ]
}
